# Reference: patent US8952024B2, “Herbicidal pyrimidone derivatives” (E I du Pont de Nemours and Company, priority 2009, dated 2015)
# What was measured:
# Assay type in all cases: in vivo
# [1] = test system: Italian ryegrass (Lolium multiflorum); assay: Test B pre-/postemergence plant response; settings: for Ryegrass, Italian plant response rating (0 to 100 scale): 62 g ai/ha, 0 is no effect, 13 to 15 days
# Procedure, shortened: (§1)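 Compound in solvent + surfactant applied pre-em (loam/sand) or post-em (plants 2–18 cm, peat medium); greenhouse hold 13–15 days; visual 0–100 control score.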
# [2] = test system: Surinam grass (Brachiaria decumbens); assay: Test B pre-/postemergence plant response; settings: for Surinam Grass plant response rating (0 to 100 scale): 62 g ai/ha, 0 is no effect, 13 to 15 days
# Procedure, shortened: as §1
# [3] = test system: bermudagrass (Cynodon dactylon); assay: Test B pre-/postemergence plant response; settings: for Bermudagrass plant response rating (0 to 100 scale): 62 g ai/ha, 0 is no effect, 13 to 15 days
# Procedure, shortened: as §1
# [4] = test system: blackgrass (Alopecurus myosuroides); assay: Test B pre-/postemergence plant response; settings: for Blackgrass plant response rating (0 to 100 scale): 62 g ai/ha, 0 is no effect, 13 to 15 days
# Procedure, shortened: as §1
# [5] = test system: cocklebur (Xanthium strumarium); assay: Test B pre-/postemergence plant response; settings: for Cocklebur plant response rating (0 to 100 scale): 62 g ai/ha, 0 is no effect, 13 to 15 days
# Procedure, shortened: as §1
# corn (Zea mays) = assay: Test B pre-/postemergence plant response; settings: for Corn plant response rating (0 to 100 scale): 62 g ai/ha, 0 is no effect, 13 to 15 days
# Procedure, shortened: as §1
# [6] = test system: morningglory (Ipomoea coccinea); assay: Test B pre-/postemergence plant response; settings: for Morningglory plant response rating (0 to 100 scale): 62 g ai/ha, 0 is no effect, 13 to 15 days
# Procedure, shortened: as §1
# [7] = test system: ragweed (common ragweed, Ambrosia elatior); assay: Test B pre-/postemergence plant response; settings: for Ragweed plant response rating (0 to 100 scale): 62 g ai/ha, 0 is no effect, 13 to 15 days
# Procedure, shortened: as §1
# soybean (Glycine max) = assay: Test B pre-/postemergence plant response; settings: for Soybean plant response rating (0 to 100 scale): 62 g ai/ha, 0 is no effect, 13 to 15 days
# Procedure, shortened: as §1
# [8] = test system: barnyardgrass (Echinochloa crus-galli); assay: Test B flooded paddy test; settings: for Plant response rating, Flood, Barnyardgrass: 250 g ai/ha, flooded paddy test, visual rating on 0 to 100 scale (0 no effect, 100 complete control) after 13 to 15 days; for Plant response rating, Barnyardgrass: Flood (flooded paddy test), 13 to 15 days; for Barnyardgrass plant response rating: Flood, 31 g ai/ha, scale 0 to 100 (0 no effect, 100 complete control)
# Procedure, shortened: (§2)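 Each compound is added to standing floodwater (3 cm above soil, maintained) in pots of 2-leaf-stage plants; greenhouse exposure lasts 13–15 d before visual comparison with controls on a 0–100 control scale.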
# [9] = test system: ducksalad (Heteranthera limosa); assay: Test B flooded paddy test; settings: for Plant response rating, Flood, Ducksalad: 250 g ai/ha, flooded paddy test, visual rating on 0 to 100 scale (0 no effect, 100 complete control) after 13 to 15 days; for Plant response rating, Ducksalad: Flood (flooded paddy test), 13 to 15 days; for Ducksalad plant response rating: Flood, 31 g ai/ha, scale 0 to 100 (0 no effect, 100 complete control)
# Procedure, shortened: as §2
# rice (Oryza sativa) = assay: Test B flooded paddy test; settings: for Plant response rating, Flood, Rice: 250 g ai/ha, flooded paddy test, visual rating on 0 to 100 scale (0 no effect, 100 complete control) after 13 to 15 days; for Plant response rating, Rice: Flood (flooded paddy test), 13 to 15 days; for Rice plant response rating: Flood, 31 g ai/ha, scale 0 to 100 (0 no effect, 100 complete control)
# Procedure, shortened: as §2
# [10] = test system: umbrella sedge (Cyperus difformis); assay: Test B flooded paddy test; settings: for Plant response rating, Flood, Sedge, Umbrella: 250 g ai/ha, flooded paddy test, visual rating on 0 to 100 scale (0 no effect, 100 complete control) after 13 to 15 days; for Plant response rating, Sedge, Umbrella: Flood (flooded paddy test), 13 to 15 days; for Sedge, Umbrella plant response rating: Flood, 31 g ai/ha, scale 0 to 100 (0 no effect, 100 complete control)
# Procedure, shortened: as §2
# [11] = 31 g ai/ha, postemergence, scale 0 to 100, 0 is no effect, 100 is complete control
# [12] = postemergence, 100 is complete control
# [13] = Postemergence, 250 g ai/ha, scale 0 to 100 (0 no effect, 100 complete control)
# [14] = Postemergence, 125 g ai/ha, visual rating after 13 to 15 days, scale 0 (no effect) to 100 (complete control)
# [15] = 62 g ai/ha, scale of 0 to 100 where 0 is no effect and 100 is complete control
# [16] = 125 g ai/ha, scale 0 to 100, 0 is no effect, 100 is complete control
smiles,measurement,setting,value
CCCCn1c(-c2ccccc2)ncc(C(=O)C2=C(O)CCCC2=O)c1=O [Compound 86],"Plant response rating, Ryegrass, Italian",[1]; [11],25
same,"Ryegrass, Italian plant response rating (0 to 100 scale)",[1]; [12],30
same,"Plant response rating, Ryegrass, Italian",[1]; [13],60
same,"Plant response rating, Surinam Grass",[2]; [11],80
same,Surinam Grass plant response rating (0 to 100 scale),[2]; [12],95
same,"Plant response rating, Surinam Grass",[2]; [13],100
same,"Plant response rating, Bermudagrass",[3]; [11],85
same,Bermudagrass plant response rating (0 to 100 scale),[3]; [12],90
same,"Plant response rating, Bermudagrass",[3]; [14],95
same,"Plant response rating, Bermudagrass",[3]; [13],95
same,"Plant response rating, Blackgrass",[4]; [11],15
same,Blackgrass plant response rating (0 to 100 scale),[4]; [12],30
same,"Plant response rating, Blackgrass",[4]; [14],45
same,"Plant response rating, Blackgrass",[4]; [13],55
same,"Plant response rating, Cocklebur",[5]; [11],85
same,Cocklebur plant response rating (0 to 100 scale),[5]; [12],95
same,"Plant response rating, Cocklebur",[5]; [14],95
same,"Plant response rating, Cocklebur",[5]; [13],98
same,"Plant response rating, Corn",corn (Zea mays); [11],10
same,Corn plant response rating (0 to 100 scale),corn (Zea mays); [12],60
same,"Plant response rating, Corn",corn (Zea mays); [14],80
same,"Plant response rating, Corn",corn (Zea mays); [13],85
same,"Plant response rating, Morningglory",[6]; [11],70
same,Morningglory plant response rating (0 to 100 scale),[6]; [12],80
same,"Plant response rating, Morningglory",[6]; [13],100
same,"Plant response rating, Ragweed",[7]; [11],80
same,Ragweed plant response rating (0 to 100 scale),[7]; [12],90
same,"Plant response rating, Ragweed",[7]; [13],98
same,"Plant response rating, Soybean",soybean (Glycine max); [11],80
same,Soybean plant response rating (0 to 100 scale),soybean (Glycine max); [12],95
same,"Plant response rating, Soybean",soybean (Glycine max); [13],98
same,"Plant response rating, Flood, Barnyardgrass",[8],60
same,"Plant response rating, Barnyardgrass",[8]; [15],40
same,"Plant response rating, Barnyardgrass",[8]; [16],50
same,Barnyardgrass plant response rating,[8],30
same,"Plant response rating, Flood, Ducksalad",[9],65
same,"Plant response rating, Ducksalad",[9]; [15],55
same,"Plant response rating, Ducksalad",[9]; [16],55
same,Ducksalad plant response rating,[9],0
same,"Plant response rating, Flood, Rice",rice (Oryza sativa),40
same,"Plant response rating, Rice",rice (Oryza sativa); [15],0
same,"Plant response rating, Rice",rice (Oryza sativa); [16],20
same,Rice plant response rating,rice (Oryza sativa),0
same,"Plant response rating, Flood, Sedge, Umbrella",[10],85
same,"Plant response rating, Sedge, Umbrella",[10]; [15],30
same,"Plant response rating, Sedge, Umbrella",[10]; [16],70
same,"Sedge, Umbrella plant response rating",[10],20
O=C1CCCC(OC(=O)C2CC2)=C1C(=O)c1cnc(-c2ccccc2)n(-c2ccccc2)c1=O [Compound 88],"Plant response rating, Ryegrass, Italian",[1]; [11],5
same,"Ryegrass, Italian plant response rating (0 to 100 scale)",[1]; [12],5
same,"Plant response rating, Ryegrass, Italian",[1]; [13],80
same,"Plant response rating, Surinam Grass",[2]; [11],95
same,Surinam Grass plant response rating (0 to 100 scale),[2]; [12],95
same,"Plant response rating, Surinam Grass",[2]; [13],98
same,"Plant response rating, Bermudagrass",[3]; [11],80
same,Bermudagrass plant response rating (0 to 100 scale),[3]; [12],80
same,"Plant response rating, Bermudagrass",[3]; [14],80
same,"Plant response rating, Bermudagrass",[3]; [13],85
same,"Plant response rating, Blackgrass",[4]; [11],0
same,Blackgrass plant response rating (0 to 100 scale),[4]; [12],5
same,"Plant response rating, Blackgrass",[4]; [14],5
same,"Plant response rating, Blackgrass",[4]; [13],10
same,"Plant response rating, Cocklebur",[5]; [11],90
same,Cocklebur plant response rating (0 to 100 scale),[5]; [12],90
same,"Plant response rating, Cocklebur",[5]; [14],95
same,"Plant response rating, Cocklebur",[5]; [13],95
same,"Plant response rating, Corn",corn (Zea mays); [11],15
same,Corn plant response rating (0 to 100 scale),corn (Zea mays); [12],65
same,"Plant response rating, Corn",corn (Zea mays); [14],65
same,"Plant response rating, Corn",corn (Zea mays); [13],80
same,"Plant response rating, Morningglory",[6]; [11],90
same,Morningglory plant response rating (0 to 100 scale),[6]; [12],90
same,"Plant response rating, Morningglory",[6]; [13],95
same,"Plant response rating, Ragweed",[7]; [11],75
same,Ragweed plant response rating (0 to 100 scale),[7]; [12],80
same,"Plant response rating, Ragweed",[7]; [13],98
same,"Plant response rating, Soybean",soybean (Glycine max); [11],75
same,Soybean plant response rating (0 to 100 scale),soybean (Glycine max); [12],90
same,"Plant response rating, Soybean",soybean (Glycine max); [13],98
same,"Plant response rating, Flood, Barnyardgrass",[8],60
same,"Plant response rating, Barnyardgrass",[8]; [15],20
same,"Plant response rating, Barnyardgrass",[8]; [16],40
same,Barnyardgrass plant response rating,[8],0
same,"Plant response rating, Flood, Ducksalad",[9],80
same,"Plant response rating, Ducksalad",[9]; [15],40
same,"Plant response rating, Ducksalad",[9]; [16],75
same,Ducksalad plant response rating,[9],30
same,"Plant response rating, Flood, Rice",rice (Oryza sativa),50
same,"Plant response rating, Rice",rice (Oryza sativa); [15],0
same,"Plant response rating, Rice",rice (Oryza sativa); [16],40
same,Rice plant response rating,rice (Oryza sativa),0
same,"Plant response rating, Flood, Sedge, Umbrella",[10],65
same,"Plant response rating, Sedge, Umbrella",[10]; [15],30
same,"Plant response rating, Sedge, Umbrella",[10]; [16],40
same,"Sedge, Umbrella plant response rating",[10],0
